Among the data in PubChem BioAssay (NCI) are TGI values, retold here.

Holding throughout (assay): NCI-60 cell line screen, 48 h
Assay [1] deals with DMS 114 small cell lung.
In assay [2] the test system is DMS 273 small cell lung.
Assay [3] deals with RXF-631 renal.
Assay [4] has as its system M19-MEL melanoma.
The subject of assay [5] is SNB-78 CNS.
Assay [6] relates to DLD-1 colon.
The test system of assay [7] is XF 498 CNS.
The subject of assay [8] is HOP-18 NSCLC.

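These data come from cells grown in 96-well plates and exposed to compound for 48 hours at five concentrations. Definition used: TGI = concentration required for complete inhibition of growth.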 Bounds are passed on as bounds.

For `COc1ccc(C(=O)O/N=C2\CCCC\C2=C/c2ccccc2)cc1`, the TGI in assay [1], in assay [2], in assay [3], in assay [4], in assay [5] and in assay [6] was over 100 µM throughout. Also, the TGI was 89.2 µM in assay [7] and over 100 µM in assay [8].
On to `CCCCN(CCCC)C(=Nc1ccccc1)N(CCCC)CCCC`, for which the TGI in assay [1] was 4.99 µM; in assay [2], 17.1 µM; in assay [3], 26.2 µM; in assay [4], 22.4 µM; in assay [5], 41 µM; in assay [6] it was 43.6 µM. Besides, the TGI amounted to 5.95 µM in assay [7] and 6.39 µM in assay [8].
Take `Cc1c(C(=O)/C=C/c2ccco2)[n+](=O)c2ccccc2n1[O-]`: the TGI in assay [1], in assay [2], in assay [3], in assay [4], in assay [5] and in assay [6] was over 100 µM throughout. The TGI in assay [7] and in assay [8] was over 100 µM each time.
Consider `N#Cc1c([N+](=O)[O-])cc(C(F)(F)F)cc1[N+](=O)[O-]`, for which the TGI turned out to be 3.93 µM in assay [1]; 16.8 µM in assay [2]; 27.3 µM in assay [3]; 5.27 µM in assay [4]; 4.15 µM in assay [5]; 16.7 µM in assay [6]. Also, the TGI is 3.54 µM in assay [7] and 23.9 µM in assay [8].
For `[N-]=[N+]=Nc1ccc(S(=O)(=O)Oc2cc(OS(=O)(=O)c3ccc(N=[N+]=[N-])cc3)cc(OS(=O)(=O)c3ccc(N=[N+]=[N-])cc3)c2)cc1`, the TGI in assay [1], in assay [2], in assay [3], in assay [4], in assay [5] and in assay [6] was over 100 µM throughout. For the same compound, the TGI in assay [7] and in assay [8] was over 100 µM each time.
